Measured values reported in patent publication US20190000128A1, “INFANT FORMULA COMPRISING HUMAN MILK PEPTIDES” (THE A2 MILK COMPANY LIMITED, priority 2015, published 2019).

Test system: neuronal stem cell (NSC) cultures / foetal stem cells
Assay: Neuronal stem cell neurogenesis, differentiation and proliferation by immunocytochemistry
Assay type: cell-based
Details: foetal stem cells treated with 1 μM; FIG. 3B
Method: Previously isolated and frozen neuronal stem cell cultures were properly thawed, maintained and cultured. Cell suspensions were grown in a defined medium (DF12) composed of DMEM/F12 (1:1), 2 mM L-glutamine, 1 mM sodium pyruvate, antibiotics/antimycotics (Invitrogen, Grand Island, N.Y.), 0.6% glucose, 25 μg/ml insulin, 20 nM progesterone, 60 μM putrescine, 30 nM sodium selenite (all from Sigma, St. Louis, Mo.), 100 μg/ml human transferrin (Roche, Indianapolis, Ind.), 20 ng/ml human recombinant […] growth factor (EGF; Roche or Invitrogen, Chicago, Ill.) and basic fibroblast growth factor (bFGF; Upstate Biotechnology, Lake Placid, N.Y.). The cells grew as free-floating aggregates (neurospheres) and were passaged by mechanical dissociation every 3-4 d. […]
To identify proliferating cells, 100 μM BrdU, an analog of thymidine, was added 24 h before cell fixation. […] A primary monoclonal antibody against BrdU (1:20; Dakopatts) was added for 1 h at room temperature and detected using AlexaFluor 488-labelled goat anti-mouse IgG (H+L). […] Apoptotic cells were visualised with Hoechst 33342 (LifeTechnologies, Md.) as fragmented pycnotic blue-stained nuclei and counted under the fluorescence microscope (López-Toledano M.A. and Shelanski M.L., 2004 Neurogenic effect of beta-amyloid peptide in the development of neural stem cells. J Neurosci. 24(23):5439-44). […]

CN1CC[C@]23c4c5ccc(O)c4O[C@H]2[C@@H](O)C=C[C@H]3[C@H]1C5 [morphine, Morphine]
neuronal proliferation (image of magnified foetal stem cells): extensive neuronal proliferation
